This passage reports Ki results from patent US8501992B2, “Hydroxyphenyl sulfonamides as antiapoptotic bcl inhibitors” (Bristol-Myers Squibb Company, priority 2008, dated 2013).

pKi: −log10 of the molar value.

Common to all, as to assay type: binding
The target of one assay is T1, Mcl-1 (Homo sapiens, UniProt Q07820).
T1 construct: without their C-terminal transmembrane domain; GST; made in house
As to the kind of experiment: Mcl-1/Bim fluorescence polarization assay (FPA). As to conditions: BIM BH3 peptide 5 nM, Mcl-1 28 nM, Ki calculated from FPA data. An excerpt: (§1) Compounds were profiled for their ability to disrupt in vitro binding interactions in fluorescence polarization assays (FPAs) using synthetic fluorochrome-labeled Bcl homology 3 (BH3) peptides derived from BIM [(FAM)-Ahx-[…]-NH2 (SEQ ID NO: 1) (GenBank Accession No. O43521)] or BAK [Ac-GQVGRQLAIIGE-LYS(FAM)-INR-NH2 (SEQ ID NO:2) (GenBank Accession No. Q16611) amino acid sequences and four bacterial recombinant proteins [Bcl-b (GenBank Accession No. Q9HD36), Bcl-2 (GenBank Accession No. P10415), Bcl-Xl (GenBank Accession No. Q07817), Mcl-1 (GenBank Accession No. Q07820)] without their C-terminal transmembrane domain. Proteins were purified from bacterial lysates using their glutathione S-transferase (GST)-tag (Bcl-b, Bcl-2, Mcl-1) or His6-tag (Bcl-Xl) and following one-step affinity chromatography procedures. Dissociation constants (Kd) for peptide binding protein were determined by fluorescence polarization in FPAs measuring BIM BH3 peptide binding Bcl-b, Mcl-1 or Bcl-2 protein or BAK BH3 peptide binding Bcl-Xl protein. The Kd values were generated by fitting the experimental data using a sigmoidal dose-response nonlinear regression model.
(§2) Compound inhibitory concentration values, IC50 (50% reduction in fluorescence polarization), were determined using fluorochrome-labeled BH3 peptides and recombinant Bcl proteins in fluorescence polarization assays (FPAs). Compounds diluted in DMSO (0.5 ul) were transferred (in duplicate) to individual wells of a 384-well plate. The fluorochrome-labeled peptide was added followed by recombinant protein addition. Each binding FPA reaction (50 ul) contained BIM BH3 peptide (5 nM) or BAK BH3 peptide (1.5 nM) and Bcl-b (40 nM), Mcl-1 (28 nM), Bcl-2 (11 nM) or Bcl-Xl. (5 nM) protein suspended in assay buffer [20 mM sodium phosphate, pH 7.4, 1 mM EDTA, 50 mM NaCl., 0.05% Pluronic F68]. Reaction mixtures were incubated at ambient temperature for 60 minutes prior to measuring polarization (mP) using an Analyst (LJL, Molecular Devices, Sunnyvale, Calif.) programmed to detect an emission wavelength of 530 nm after excitation (excitation wavelength=485 nm).
(§3) Competitive compound inhibition constants (Ki) were calculated using FPA experimental data and a mathematical equation, Ki=[I]50/([L]50/Kd+[P]0/Kd+1), where [I]50 denotes free inhibitor concentration at 50% inhibition, [L]50 is free labeled ligand concentration at 50% inhibition, [P]0 is free protein concentration at 0% inhibition, and Kd is the dissociation constant of the protein-ligand complex.

The next assay addresses T2, Bcl-b (Homo sapiens, UniProt Q9HD36).
T2 construct: without their C-terminal transmembrane domain; GST; made in house
T2 sequence (Q9HD36 1-182 limits assumed): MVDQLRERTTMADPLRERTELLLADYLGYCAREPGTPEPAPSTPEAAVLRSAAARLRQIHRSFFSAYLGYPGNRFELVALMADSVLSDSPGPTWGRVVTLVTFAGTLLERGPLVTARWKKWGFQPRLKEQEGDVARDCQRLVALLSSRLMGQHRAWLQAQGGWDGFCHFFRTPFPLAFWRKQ
As to the kind of experiment: Bclb/Bim fluorescence polarization assay (FPA). As to conditions: BIM BH3 peptide 5 nM, Bcl-b 40 nM, Ki calculated from FPA data.
Source text: as §1, §2, §3

A further assay deals with T3, Bcl-2 (Homo sapiens, UniProt P10415).
T3 construct: without their C-terminal transmembrane domain; GST; made in house
Briefly: Bcl2/Bim fluorescence polarization assay (FPA). As to conditions: BIM BH3 peptide 5 nM, Bcl-2 11 nM, Ki calculated from FPA data.
Source text: as §1, §2, §3

T1 sequence (Q07820 1-327 limits assumed): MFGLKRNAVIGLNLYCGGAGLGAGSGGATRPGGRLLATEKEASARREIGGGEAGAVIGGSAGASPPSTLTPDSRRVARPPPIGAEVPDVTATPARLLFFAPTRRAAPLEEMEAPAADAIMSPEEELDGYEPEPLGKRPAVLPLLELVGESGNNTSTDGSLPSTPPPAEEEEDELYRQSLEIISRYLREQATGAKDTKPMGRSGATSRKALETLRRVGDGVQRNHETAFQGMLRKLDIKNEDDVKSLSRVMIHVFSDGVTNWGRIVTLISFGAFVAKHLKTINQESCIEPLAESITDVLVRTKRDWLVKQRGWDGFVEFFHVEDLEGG
T3 sequence (P10415 1-211 limits assumed): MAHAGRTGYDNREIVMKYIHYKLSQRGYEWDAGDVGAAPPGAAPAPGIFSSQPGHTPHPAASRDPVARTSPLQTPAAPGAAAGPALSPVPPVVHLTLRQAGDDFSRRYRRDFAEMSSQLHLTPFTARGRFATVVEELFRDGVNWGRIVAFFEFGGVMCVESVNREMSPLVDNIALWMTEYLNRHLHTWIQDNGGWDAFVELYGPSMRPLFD

Take `O=C(NCc1cccc(CN(Cc2ccc(F)cc2)S(=O)(=O)c2cc(Cl)cc(Cl)c2O)c1)c1cc(O)nc(O)c1` [Example 2, N-(3-((3,5-Dichloro-N-(4-fluorobenzyl)-2-hydroxyphenylsulfonamido)methyl)benzyl)-2,6-dihydroxyisonicotinamide]: the figures for the pKi at Mcl-1, on Bcl-b and on Bcl-2 were 7.70, 7.30 and 7.70, respectively.

Take `N#Cc1ccc(S(=O)(=O)NCc2cccc(CN(Cc3ccc(-c4ccccc4)cc3)S(=O)(=O)c3cc(Cl)cc(Cl)c3O)c2)cc1` [Example 4, N-(Biphenyl-4-ylmethyl)-3,5-dichloro-N-(3-((4-cyanophenylsulfonamido)methyl)benzyl)-2-hydroxybenzenesulfonamide]: the values for the negative-log Ki (pKi) at Mcl-1, on Bcl-b and at Bcl-2 were 7.22, 6.55 and 7.22, respectively.

On to `Cc1ccc(S(=O)(=O)N(Cc2cc(CN(Cc3ccc(F)cc3)S(=O)(=O)c3cc(Cl)cc(Cl)c3O)cc(Oc3ccc(F)cc3)c2)CC(C)C)cc1` [Example 8, 3,5-Dichloro-N-(4-fluorobenzyl)-N-(3-(4-fluorophenoxy)-5-((N-isobutyl-4-methylphenylsulfonamido)methyl)benzyl)-2-hydroxybenzenesulfonamide], for which the values for the pKi on Mcl-1, on Bcl-b and on Bcl-2 were 7.40, 7.00 and 8.00, respectively.

As for `Cc1ccc(S(=O)(=O)N(Cc2ccc(F)cc2)Cc2cc(CNS(=O)(=O)c3cc(Cl)cc(Cl)c3O)cc(-c3ccc(F)cc3)c2)cc1` [Example 13, 3,5-Dichloro-N-((4′-fluoro-5-((N-(4-fluorobenzyl)-4-methylphenylsulfonamido)methyl)biphenyl-3-yl)methyl)-2-hydroxybenzenesulfonamide], the values for the negative logarithm of the Ki (pKi) on Mcl-1, at Bcl-b and on Bcl-2 were 7.52, 7.05 and 7.70, respectively.

As to `CC(C)CN(Cc1cc(Cl)cc(CN(CC(C)C)S(=O)(=O)c2cc(Cl)cc(Cl)c2O)c1)S(=O)(=O)c1cccnc1` [Example 15], the pKi (as a rule, the Ki on a negative log10 scale, so that one unit is a factor of ten) was 8.00 on Mcl-1, 7.10 at Bcl-b and 8.00 at Bcl-2.

Regarding `COc1ccc(S(N)(=O)=O)cc1C(=O)NCc1cccc(CN(Cc2ccc(-c3ccccc3)cc2)S(=O)(=O)c2cc(Cl)cc(Cl)c2O)c1` [Example 39, N-(3-((N-(biphenyl-4-ylmethyl)-3,5-dichloro-2-hydroxyphenyl-sulfonamido)methyl)benzyl)-2-methoxy-5-sulfamoylbenzamide], the pKi is 6.68 at Mcl-1, 6.54 on Bcl-b and 6.82 at Bcl-2.

Turning to `O=C(O)c1ccc(S(=O)(=O)NCc2cccc(CN(Cc3ccc(-c4ccccc4)cc3)S(=O)(=O)c3cc(Cl)cc(Cl)c3O)c2)cc1` [Example 49, 4-(N-(3-((N-(biphenyl-4-ylmethyl)-3,5-dichloro-2-hydroxyphenyl-sulfonamido)methyl)benzyl)sulfamoyl)benzoic acid], the pKi was 6.69 at Mcl-1, 6.86 on Bcl-b and 6.46 at Bcl-2.

As for `CS(=O)(=O)c1ccc(CN(Cc2cccc(CNS(=O)(=O)c3cc(Cl)cc(Cl)c3O)c2)S(=O)(=O)c2cc(Cl)cc(Cl)c2O)cc1` [Example 56, 3,5-dichloro-N-(3-((3,5-dichloro-2-hydroxyphenyl-sulfonamido)methyl)benzyl)-2-hydroxy-N-(4-(methylsulfonyl)benzyl) benzenesulfonamide], the pKi at Mcl-1 was 6.73; at Bcl-b, 6.99; on Bcl-2, 6.83.

As to `CCN(CC)CCOc1ccc(CN(Cc2cccc(CNS(=O)(=O)c3cc(Cl)cc(Cl)c3O)c2)S(=O)(=O)c2cc(Cl)cc(Cl)c2O)cc1` [Example 61, 3,5-dichloro-N-(3-((3,5-dichloro-2-hydroxyphenylsulfonamido)methyl)benzyl)-N-(4-(2-(diethylamino)ethoxy)benzyl)-2-hydroxybenzenesulfonamide], the pKi on Mcl-1 is 5.99; at Bcl-b, 6.88; on Bcl-2, 6.30.

`O=S(=O)(NCc1cccc(CN(Cc2ccccc2SC(F)(F)F)S(=O)(=O)c2cc(Cl)cc(Cl)c2O)c1)c1cc(Cl)cc(Cl)c1O` [Example 64]: the results for the pKi on Mcl-1, on Bcl-b and on Bcl-2 were 6.77, 7.13 and 7.02, respectively.

`CC(C)CN(Cc1cc(Cl)cc(CN(CC(C)C)S(=O)(=O)c2cc(Cl)cc(Cl)c2O)c1)C(=O)c1ccc(SC(F)(F)F)cc1` [Example 71, N-(3-chloro-5-((3,5-dichloro-2-hydroxy-N-isobutylphenylsulfonamido)methyl)benzyl)-N-isobutyl-4-(trifluoromethylthio)benzamide]: the values for the pKi at Mcl-1, on Bcl-b and at Bcl-2 were 6.01, 6.61 and 6.33, respectively.

Turning to `CC(C)CN(Cc1cc(Cl)cc(CN(CC(C)C)S(=O)(=O)c2cc(Cl)cc(Cl)c2O)c1)C(=O)c1cccc(SC(F)(F)F)c1` [Example 72, N-(3-chloro-5-((3,5-dichloro-2-hydroxy-N-isobutylphenylsulfonamido)methyl)benzyl)-N-isobutyl-3-(trifluoromethylthio)benzamide], the pKi at Mcl-1 is 5.94; at Bcl-b, 6.74; on Bcl-2, 6.46.

Consider `CC(C)CN(Cc1cc(Cl)cc(CN(CC(C)C)S(=O)(=O)c2cc(Cl)cc(Cl)c2O)c1)C(=O)c1cccc(S(=O)(=O)C(F)(F)F)c1` [Example 73, N-(3-chloro-5-((3,5-dichloro-2-hydroxy-N-isobutylphenylsulfonamido)methyl)benzyl)-N-isobutyl-3-(trifluoromethylsulfonyl)benzamide], for which the pKi on Mcl-1 was 6.42; on Bcl-b it was 6.84; on Bcl-2, 6.50.

As for `CS(=O)(=O)c1cccc(CN(Cc2cc(CNC(=O)c3cccc(Oc4ccccc4)c3)cc(Oc3ccc(F)cc3)c2)S(=O)(=O)c2cc(Cl)cc(Cl)c2O)c1` [Example 77, N-(3-((3,5-dichloro-2-hydroxy-N-(3-(methylsulfonyl)benzyl)phenylsulfonamido)methyl)-5-(4-fluorophenoxy)benzyl)-3-phenoxybenzamide], the figures for the pKi at Mcl-1, at Bcl-b and on Bcl-2 were 6.71, 7.11 and 6.88, respectively.

In the case of `O=S(=O)(c1cc(Cl)cc(Cl)c1)N(Cc1ccc(F)cc1)Cc1cccc(CN(Cc2ccc(F)cc2)S(=O)(=O)c2cc(Cl)cc(Cl)c2O)n1` [Example 91, 3,5-dichloro-N-((6-((3,5-dichloro-N-(4-fluorobenzyl)phenylsulfonamido)methyl)pyridin-2-yl)methyl)-N-(4-fluorobenzyl)-2-hydroxybenzenesulfonamide], the results for the pKi on Mcl-1, on Bcl-b and on Bcl-2 were 7.28, 7.48 and 7.38, respectively.

For the molecule `O=S(=O)(c1cc(Cl)cc(Cl)c1)N(Cc1ccc(F)cc1)Cc1cccc(CN(Cc2ccc(F)cc2)S(=O)(=O)c2cc(Cl)cc(Cl)c2O)[n+]1[O-]` [Example 92, 2-((3,5-dichloro-N-(4-fluorobenzyl)-2-hydroxyphenylsulfonamido)methyl)-6-((3,5-dichloro-N-(4-fluorobenzyl)phenylsulfonamido)methyl)pyridine 1-oxide], the pKi at Mcl-1 is 7.22; at Bcl-b, 7.92; on Bcl-2, 7.34.

As for `O=S(=O)(c1cccc(CN(Cc2ccc(F)cc2)S(=O)(=O)c2cc(Cl)cc(Cl)c2O)c1)N(Cc1ccc(F)cc1)Cc1cc(Cl)cc(Cl)c1` [Example 94, 3,5-Dichloro-N-(3-(N-(3,5-dichlorobenzyl)-N-(4-fluorobenzyl)sulfamoyl)benzyl)-N-(4-fluorobenzyl)-2-hydroxybenzenesulfonamide], the pKi was 7.22 at Mcl-1, 7.40 on Bcl-b and 7.22 at Bcl-2.
